We go through 2 compounds from BindingDB's records for patent US20250353858 (BEONE MEDICINES I GMBH, 2025).

The target in experiment [1] is Diacylglycerol kinase alpha (Homo sapiens, UniProt P23743). Put plainly: Biochemical DGK IC50 Assay. The method, then: (§1) Enzymatic reactions of DGKζ, DGKα and DGKδ were performed using ADP-Glo assay with lipid micelle substrate. […] Full length DGKα (D21-10BG, SignalChem) and full length DGKδ (D23-10G, SignalChem) were purchased. […] The resulted product was resuspended in buffer containing 25 mM HEPES pH 7.0, 0.5 mM EDTA and 160 mM Octyl β-D glucopyranoside by vigorous mixing and ultrasonic (IID, Scientz).Final concentration in reaction Enzyme Enzyme (nM) ATP (μM) DAG (μM)DGKα 7.5 140 80DGKδ 10 140 80DGKζ 0.5 140 80The inhibition activities testing for the compound disclosed herein were carried out at room temperature in assay buffer containing 50 mM HEPES, 10 mM MgCl2, 0.01% BSA, 0.1 mM Na3VO4, 0.005% Tween-20 and 0.01 mM CaCl2. […] 3 μL 2× enzyme solution was added to wells. […] After 1 hour reaction, 5 μL ADP-Glo reagent (Promga V9101) was added and incubated for 40 minutes. 10 μL Kinase Detection reagent was added and incubated for 30 minutes. Luminescence was measured on a microplate reader (PHERAstar FSX, BMG labtech). The IC50s are calculated based on inhibition of enzyme activity in the presence of increasing concentrations of compounds.

The target of experiment [2] is Diacylglycerol kinase zeta (Homo sapiens, UniProt Q13574). Put plainly: Biochemical DGK IC50 Assay. The method, then: as §1
Chain of Diacylglycerol kinase zeta (Q13574 as listed by the source): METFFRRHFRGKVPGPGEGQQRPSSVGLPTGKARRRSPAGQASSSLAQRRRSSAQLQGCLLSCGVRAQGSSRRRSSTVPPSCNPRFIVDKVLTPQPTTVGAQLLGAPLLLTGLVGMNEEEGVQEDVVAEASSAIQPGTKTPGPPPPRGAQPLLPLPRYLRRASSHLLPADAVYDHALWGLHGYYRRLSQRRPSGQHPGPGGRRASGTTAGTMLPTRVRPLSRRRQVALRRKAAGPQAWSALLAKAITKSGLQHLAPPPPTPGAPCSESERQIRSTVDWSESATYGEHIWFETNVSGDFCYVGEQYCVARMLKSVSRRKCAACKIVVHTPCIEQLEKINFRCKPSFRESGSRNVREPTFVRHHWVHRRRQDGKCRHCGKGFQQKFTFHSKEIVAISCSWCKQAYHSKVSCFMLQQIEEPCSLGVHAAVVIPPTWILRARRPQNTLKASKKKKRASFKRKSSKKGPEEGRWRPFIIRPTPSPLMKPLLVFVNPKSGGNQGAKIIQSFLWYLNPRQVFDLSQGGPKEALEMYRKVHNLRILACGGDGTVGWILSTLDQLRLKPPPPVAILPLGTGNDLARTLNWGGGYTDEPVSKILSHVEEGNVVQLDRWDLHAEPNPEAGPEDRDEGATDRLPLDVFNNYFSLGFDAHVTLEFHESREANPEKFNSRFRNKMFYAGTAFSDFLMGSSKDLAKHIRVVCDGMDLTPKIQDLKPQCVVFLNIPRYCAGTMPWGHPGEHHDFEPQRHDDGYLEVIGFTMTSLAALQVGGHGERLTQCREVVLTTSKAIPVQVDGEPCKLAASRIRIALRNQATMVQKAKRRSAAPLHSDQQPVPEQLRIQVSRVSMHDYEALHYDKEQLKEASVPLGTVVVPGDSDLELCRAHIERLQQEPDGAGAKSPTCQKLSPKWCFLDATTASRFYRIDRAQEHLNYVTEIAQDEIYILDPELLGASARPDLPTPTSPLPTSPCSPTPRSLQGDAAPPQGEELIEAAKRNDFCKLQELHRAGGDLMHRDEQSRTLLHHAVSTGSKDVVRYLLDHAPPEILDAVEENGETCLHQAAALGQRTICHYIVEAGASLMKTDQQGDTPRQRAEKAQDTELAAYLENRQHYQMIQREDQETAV

Chain of Diacylglycerol kinase alpha (P23743 whole entry): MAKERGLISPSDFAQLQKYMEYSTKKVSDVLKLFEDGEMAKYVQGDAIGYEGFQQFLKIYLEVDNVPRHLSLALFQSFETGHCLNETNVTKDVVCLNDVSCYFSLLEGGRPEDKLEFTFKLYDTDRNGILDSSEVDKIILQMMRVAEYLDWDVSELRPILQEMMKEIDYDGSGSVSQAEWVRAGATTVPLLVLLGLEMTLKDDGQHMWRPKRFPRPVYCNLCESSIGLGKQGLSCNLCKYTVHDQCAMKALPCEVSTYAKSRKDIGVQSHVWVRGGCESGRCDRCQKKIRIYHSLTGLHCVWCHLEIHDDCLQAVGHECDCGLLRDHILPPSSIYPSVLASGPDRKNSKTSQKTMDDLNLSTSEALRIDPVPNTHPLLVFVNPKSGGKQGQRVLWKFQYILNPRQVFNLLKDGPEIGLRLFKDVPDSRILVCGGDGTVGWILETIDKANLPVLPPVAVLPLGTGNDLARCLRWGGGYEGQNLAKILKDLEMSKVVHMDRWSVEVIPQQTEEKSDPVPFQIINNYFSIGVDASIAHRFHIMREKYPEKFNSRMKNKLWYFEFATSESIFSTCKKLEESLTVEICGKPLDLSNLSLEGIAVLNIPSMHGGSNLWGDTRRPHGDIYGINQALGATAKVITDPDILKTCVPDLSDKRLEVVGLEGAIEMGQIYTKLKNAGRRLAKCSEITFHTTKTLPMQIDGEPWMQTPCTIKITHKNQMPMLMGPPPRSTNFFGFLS

As a reminder, the IC50 is the point on the concentration scale where inhibition reaches its midpoint. Low values mean greater potency, high ones weaker potency. For the compound `CC(c1ccc2c(n1)OC(C)(C)CO2)N1C[C@H](C)N(c2cc(=O)n(C)c3cn(CC#N)nc23)C[C@H]1C` (stereo partly drawn) [2-(7-((2S,5R)-4-(1-(3,3-dimethyl-2,3-dihydro-[1,4]dioxino[2,3-b]pyridin-6-yl)ethyl)-2,5-dimethylpiperazin-1-yl)-4-methyl-5-oxo-4,5-dihydro-2H-pyrazolo[4,3-b]pyridin-2-yl)acetonitrile], the half-maximal inhibitory concentration (IC50) in experiment [1] worked out at 61.5 µM; in experiment [2], 0.075 µM.
`C[C@@H]1CC(c2cc(=O)n(C)c3cc(CC#N)nn23)CCN1[C@H](C)c1ccc2nccnc2c1` (stereo partly drawn) [US20250353858, Compound A33b] registered a half-maximal inhibitory concentration (IC50) in experiment [1] greater than 10 µM.
